Results reported in patent US20070167408A1, “NOVEL ALKYL PHOSPHOLIPID DERIVATIVES WITH REDUCED CYTOTOXICITY AND USES THEREOF” (ZENTARIS GmbH, priority 2005, published 2007).
Values after ≈ are worked out from the molar mass of the structure shown.

Columns and labels:
[1] = test system: Streptococcus pneumoniae DSM 20566 (ATCC 33400); experiment: Anti-bacterial bouillon microdilution assay (MIC), bacterium A; assay type: cell-based; conditions: Streptococcus pneumoniae DSM 20566, 24 h
Procedure: (§1) Selected compounds of the invention were tested in a bouillon microdilution assay method according to the DIN 58940 (www.din.de) guidelines for determination of susceptibility of bacterial strains with regard to cell growth inhibition. The assay method quantifies bacterial cell growth which corresponds to the turbidity of the liquid culture medium by photometric measurement carried out at 595 nm.
(§2) The method of MIC determination was performed according to DIN 58940-5. The volumina were adapted according to the microdilution method as described in DIN 58940-7 guideline.
(§3) Dependent on water solubility, compounds of the invention were dissolved either in water or ethanol in a concentration of 10 mg/ml. Subsequently, the stock was further diluted in water to a concentration of 512 μg/ml. The following serial dilutions (factor 2) were performed in water resulting in the following […] testing concentrations: 256 μg/ml, 128 μg/ml, 64 μg/ml, 32 μg/ml, 16 μg/ml, 8 μg/ml, 4 μg/ml, 2 μg/ml, 1 μg/ml, 0.5 μg/ml, 0.25 μg/ml and 0.125 μg/ml. Diluted compounds of the invention were transferred in 100 μl volume to the microtiter plate wells.
(§4) Pre-cultures of bacteria were grown in appropriate liquid media (refer to ATCC webpage, www.atcc.org) and afterwards were inoculated in corresponding liquid medium. 100 μl of the inoculums [adjusted to an amount of app. 1×10^6 microorganisms per ml (range of 10^5-10^8 microorganisms per ml)] were added to each of the testing compound concentrations and cultivated under the appropriate conditions.
(§5) Before and after incubation, bacterial growth was determined by photometric analysis against a positive control containing growing bacteria without compound and a sterile/negative control containing only the medium.

[2] = test system: SKOV-3 (human ovary adenocarcinoma) cells; experiment: XTT cytotoxicity assay, SKOV-3 cells; assay type: cell-based
Method in brief: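 Exponentially growing SKOV-3 cells recovered 24 h after plating, then received freshly diluted compounds for 2 days of continuous exposure. Viability was read by formazan formation after 3 h with XTT-PMS at 37° C., 5% CO2. IC50 came from inhibition curves.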

[3] = test system: Trypanosoma cruzi (Tulahuan-LACZ amstigotes in PEM); experiment: In vitro drug activity assay, protozoon A; assay type: cell-based; conditions: amastigotes in murine peritoneal macrophages, 3 days
Procedure: In vitro activity of selected compounds of the invention against different protozoa was assessed as follows.
Murine (CD1) peritoneal macrophages were harvested 24 hours after starch induction and dispensed into 96-well plates at a concentration of 4×10^5 mL. After 24 hours, the cells were infected with Trypanosoma cruzi Tulahuan LAC-Z amastigotes (grown and cultured according to Buckner et al., Infection and Immunity 1999, 67(1): 403-409). 24 hours later, the infected cells were exposed to the test compounds (compounds of the invention as well as known prior art compounds) for 3 days and 50 μL of 500 μM CPRG-1% Nonidet P-40 was added to each well. The plates were read after 2 to 5 hours at 570 nm (Buckner et al., Antimicrobial Agents and Chemotherapy 1996, 40(11): 2592-2597). ED50 values were calculated with Msxlfit (IDBS).
The following protozoa were assessed: • A) Trypanosoma cruzi (Tulahuan-LACZ amstigotes in PEM, Lorente S O et al., Antimicrobial agents and chemotherapy 2004, 48(8): 2937-2950; Buckner et al., Infection and Immunity 1999, 67(1): 403-409; Buckner et al., Antimicrobial Agents and Chemotherapy 1996, 40(11): 2592-2597) • B) Trypanosoma brucei rhodesiense (strain STIB900, Lorente S O et al., Antimicrobial agents and chemotherapy 2004, 48(8): 2937-2950; Habtemariam S, BMC Pharmacology 2003, 3:6) • C) Plasmodium falciparum (strain K1, Korsinczky M et al., Antimicrobial agents and chemotherapy 2000, 44(8): 2100-2108; Thaitong S and Beale G H, Trans. R. Soc. Trop. Med. Hyg. 1981, 75: 271-273; Trager W and Jensen J B, Science 1976, 193: 673-675) • D) Plasmodium faiciparum (strain 3D7, Mu et al., PLoS Biology 2005, 3(10): e335)

[4] = test system: Streptococcus pneumoniae DSM 11967 (ATCC 49619); experiment: Anti-bacterial bouillon microdilution assay (MIC), bacterium B; assay type: cell-based; conditions: Streptococcus pneumoniae DSM 11967, 24 h
Procedure: as §1, §2, §3, §4, §5

[5] = test system: Moraxella catarrhalis DMS 11994 (ATCC 43617); experiment: Anti-bacterial bouillon microdilution assay (MIC), bacterium D; assay type: cell-based
Method in brief: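 Broth microdilution MIC per DIN 58940-5/-7. Twofold compound dilutions in water spanned 256 to 0.125 μg/ml in the test concentration series, with inocula of about 1×10^6 organisms/ml in strain-appropriate media. Growth was read as turbidity at 595 nm before and after incubation, against growth and sterile controls.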

[6] = test system: PC3, RKOp21 and SKOV-3 cell lines; experiment: XTT cytotoxicity assay, mean over all three cell lines; assay type: cell-based, human; conditions: mean value over all three cell lines
Method in brief: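 Cells had 2 days of continuous compound exposure, then 3 h with XTT-PMS at 37 °C, 5% CO2 to form formazan from living cells. The value is % inhibition of cell growth, averaged over PC3, RKOp21 and SKOV-3.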

CCCCCCCCCCCCCCCCOP(=O)([O-])OCC[N+]1(C)CCCCC1 [Compound 2, Phosphoric acid hexadecyl ester 2-(1-methyl-piperidin-1-yl)-ethyl ester]
MIC, bacterium A [1]: 8 µg/mL (≈ 17.9 µM)
SKOV-3 % INH [100 μM] ([2]; second set of experiments): 19.5%
ED50 (μg/mL), protozoon A [3]: 0.50 µg/mL (≈ 1.12 µM)
MIC, bacterium B [4]: 8 µg/mL (≈ 17.9 µM)
MIC, bacterium D ([5]; 24 h): 4 µg/mL (≈ 8.94 µM)
Mean % INH [6]: 36.1%

CCCCCCCCCCCCCCCCOP(=O)([O-])OCC[N+](C)(C)C [miltefosine, hexadecylphosphocholine, reference compound]
MIC [1]: 128 µg/mL (≈ 314 µM)
inhibition at 100 µM ([2]; Homo sapiens, SK-OV-3, second set of experiments, read-out: SKOV-3 % INH [100 μM]): 74.7%
ED50 (μg/mL), protozoon A [3]: 0.63 µg/mL (≈ 1.55 µM)
MIC [4]: 128 µg/mL (≈ 314 µM)
MIC ([5]; ATCC43617, 24 h): 16 µg/mL (≈ 39.3 µM)
Mean % INH [6]: 68.7%
